Results as given in US20230041138A1, “TREATMENT OF HIS HYPORESPONDERS” (NewAmsterdam Pharma B.V. (Dutch Registration No. 55971946), priority 2021, published 2023).
Like-named read-outs stand apart in the source and are kept apart here.

Assays:
LDL-C = conditions: cited from earlier work
[1] = Phase 2 study of obicetrapib as adjunct to high-intensity statin therapy: safety and tolerability (adverse events); format: in vivo, human; conditions: for AEs, total: subjects, number (%): on top of high-intensity statin; for Subjects reporting treatment-emergent adverse events: safety population
Procedure: Patients were randomly assigned to receive one of the three treatments investigative treatments. All treatments were to be taken once daily with food for 8 weeks. Safety was assessed throughout the trial by monitoring adverse events and concomitant medication use, 12-lead electrocardiograms (ECGs), vital signs, laboratory safety assessments and physical examinations. Additional assessments included salivary cortisol, plasma aldosterone, high-sensitivity C-reactive protein (hsCRP) and endothelin 1.
Safety and tolerability profiles of obicetrapib assessed by clinical laboratory values and incidence of adverse events (AEs).
The primary outcome measure was LDL-C (percent change). Secondary outcome measures included ApoB, Non-HDL-C and HDL-C (percent change). The Intent-to-Treat (ITT) Population included all participants randomized into the study. The Modified ITT (mITT) Population included all participants in the ITT Population who receive at least 1 dose of any study drug and have a baseline value for the LDL-C assessment. The Safety Population included all participants who receive at least 1 dose of any study drug. The mITT Population was the primary population for the efficacy analyses. The primary efficacy analysis of the percent change in LDL-C was performed using a mixed model for repeated measures (MMRM) approach. In order to maintain the overall Type I error rate, the secondary efficacy endpoints were tested sequentially at the 0.05 significance level according to the pre-specified order of hierarchy. All safety endpoints were summarized descriptively. No statistical inference was applied to the safety endpoints. Plasma obicetrapib concentrations were summarized with descriptive statistics based on the […].

[2] = either obicetrapib treatment group (5 mg, 10 mg)

## CCOC(=O)N1c2ccc(C(F)(F)F)cc2[C@@H](N(Cc2cc(C(F)(F)F)cc(C(F)(F)F)c2)c2ncc(OCCCC(=O)O)cn2)C[C@H]1CC [Obicetrapib, (2R,4S)-4-{[3,5-bis(trifluoromethyl)benzyl]-[5-(3-carboxypropoxy)pyrimidin-2-yl]amino}-2-ethyl-6-trifluoromethyl-3,4-dihydro-2H-quinoline-1-carboxylic acid ethyl ester]
LDL-C; 1 mg for 12 weeks, mild dyslipidemia
  LDL-C reduction: 27%
LDL-C; 2.5 mg for 12 weeks, mild dyslipidemia
  LDL-C reduction: 33%
LDL-C; 5 mg for 12 weeks, mild dyslipidemia
  LDL-C reduction: 45%
LDL-C; 10 mg for 12 weeks, mild dyslipidemia
  LDL-C reduction: 45%
LDL-C; 10 mg obicetrapib plus 10 mg rosuvastatin
  LDL-C reduction: 63%
LDL-C; 10 mg obicetrapib plus 20 mg atorvastatin
  LDL-C reduction: 68%
LDL-C; daily 10 mg with moderate-intensity statins (20 mg atorvastatin or 10 mg rosuvastatin), 12 weeks
  incremental LDL-C reduction compared with statin monotherapy: up to 50%
[1]; 5 mg and 10 mg on top of high intensity statin therapy
  Tolerability and safety profile: well tolerated with a safety profile similar to placebo
[1]; 5 mg group
  Subjects reporting events considered study drug related: 2 subjects
  Subjects reporting treatment-emergent adverse events: 15 subjects
[1]; 5 mg group (N = 40)
  AEs, related: number of events: 2 events
  AEs, related: subjects, number (%): 2 (5.0)
  AEs, severe: 0
  AEs, total: number of events: 24 events
  Deaths: 0
  SAEs, related: 0
  SAEs, total: 0
  TEAEs leading to discontinuation of study drug: 0
  TESAEs leading to discontinuation of study: 0
  AEs, total: subjects, number (%): 13 (32.5)
[1]; 5 mg group (n = 40)
  Adverse events: Basal cell carcinoma: 0 (0.0) n (%)
  Adverse events: Fatigue: 2 (5.0) n (%)
  Adverse events: Gastrointestinal disorders: 3 (7.5) n (%)
  Adverse events: General disorders and administration site conditions: 3 (7.5) n (%)
  Adverse events: Hypertension: 2 (5.0) n (%)
  Adverse events: Infections and infestations: 1 (2.5) n (%)
  Adverse events: Injury, poisoning and procedural complications: 3 (7.5) n (%)
  Adverse events: Investigations: 2 (5.0) n (%)
  Adverse events: Metabolism and nutrition disorders: 2 (5.0) n (%)
  Adverse events: Muscle spasms: 0 (0.0) n (%)
  Adverse events: Musculoskeletal and connective tissue disorders: 4 (10.0) n (%)
  Adverse events: Nausea: 1 (2.5) n (%)
  Adverse events: Neoplasms benign, malignant and unspecified (including cysts and polyps): 0 (0.0) n (%)
  Adverse events: Nervous system disorders: 2 (5.0) n (%)
  Adverse events: Respiratory, thoracic and mediastinal disorders: 2 (5.0) n (%)
  Adverse events: Type 2 diabetes mellitus: 2 (5.0) n (%)
  Adverse events: Vascular disorders: 2 (5.0) n (%)
[1]; 10 mg group
  Subjects reporting events considered study drug related: 1 subject
  Subjects reporting treatment-emergent adverse events: 8 subjects
[1]; 10 mg group (N = 40)
  AEs, related: number of events: 1 events
  AEs, related: subjects, number (%): 1 (2.5)
  AEs, severe: 0
  AEs, total: number of events: 11 events
  Deaths: 0
  SAEs, related: 0
  SAEs, total: 0
  TEAEs leading to discontinuation of study drug: 0
  TESAEs leading to discontinuation of study: 0
  AEs, total: subjects, number (%): 8 (20.0)
[1]; 10 mg group (n = 40)
  Adverse events: Basal cell carcinoma: 0 (0.0) n (%)
  Adverse events: Fatigue: 1 (2.5) n (%)
  Adverse events: Gastrointestinal disorders: 0 (0.0) n (%)
  Adverse events: General disorders and administration site conditions: 2 (5.0) n (%)
  Adverse events: Hypertension: 0 (0.0) n (%)
  Adverse events: Infections and infestations: 0 (0.0) n (%)
  Adverse events: Injury, poisoning and procedural complications: 1 (2.5) n (%)
  Adverse events: Investigations: 0 (0.0) n (%)
  Adverse events: Metabolism and nutrition disorders: 0 (0.0) n (%)
  Adverse events: Muscle spasms: 0 (0.0) n (%)
  Adverse events: Musculoskeletal and connective tissue disorders: 4 (10.0) n (%)
  Adverse events: Nausea: 0 (0.0) n (%)
  Adverse events: Neoplasms benign, malignant and unspecified (including cysts and polyps): 0 (0.0) n (%)
  Adverse events: Nervous system disorders: 2 (5.0) n (%)
  Adverse events: Respiratory, thoracic and mediastinal disorders: 0 (0.0) n (%)
  Adverse events: Type 2 diabetes mellitus: 0 (0.0) n (%)
  Adverse events: Vascular disorders: 0 (0.0) n (%)
[1]; [2]
  Laboratory parameters (chemistry, hematology, urinalysis) compared with placebo: no clinically meaningful shifts in chemistry, hematology or urinalysis parameters
  Vital signs compared with placebo: no changes in vital signs
